Experimental data as given in patent publication US20080171710A1, “The Redox/Fyn/c-Cbl Pathway” (priority 2007, published 2008).

Tests used:
Fyn = molecular target: T1, Fyn (Rattus norvegicus, UniProt Q62844); format: cell-based; conditions: for effect on MeHg-induced Fyn activation: added 1 h before MeHg
T1 construct: 250 μg of total cell lysates were immunoprecipitated with anti-Fyn antibody; endogenous in cells; host or cells: primary rat O-2A/OPCs
Procedure: Fyn kinase activity was quantified using the Universal Tyrosine Kinase Assay Kit (Takara, Madison, Wis., United States). O-2A/OPCs exposed to different treatments were solubilized with an equal volume of the extraction buffer provided with the kit for 15 min, and the resulting lysates were centrifuged at 13,000×g for 15 min at 4° C.; 250 μg of total cell lysates were immunoprecipitated with anti-Fyn antibody (Santa Cruz Biotechnology). Following immunoprecipitation, Fyn immune complexes were washed four times with extraction buffer, and then Fyn kinase activities of each sample were assayed using the kit according to the manufacturer's instructions.

c-Cbl = format: cell-based, rat; conditions: for effect on MeHg-induced c-Cbl phosphorylation: added 1 h before MeHg; for c-Cbl phosphorylation: O-2A/OPCs induced to divide by PDGF, 3-4 hr exposure
Procedure: For the co-immunoprecipitation assay, anti-c-Cbl monoclonal antibody (BD PharMingen) or anti-PDGFRα polyclonal antibody (Santa Cruz Biotechnology) was added to the pre-cleared cell lysates (250 μg of total protein), and the mixtures were gently rocked for 2 h at 4° C. A total of 30 μl of protein A/G agarose was then added to the mixture followed by rotating at 4° C. overnight. The protein A/G agarose was then spun down and washed thoroughly three times. The precipitates were resolved on an 8% SDS-PAGE gel and then were subjected to Western blot analysis using an anti-p-Tyr (for c-Cbl phosphorylation assay) or ubiquitin (for PDGFR ubiquitylation assay) antibody (Santa Cruz Biotechnology).

PDGFRα = format: cell-based, rat; conditions: for effect on MeHg-induced reductions in levels of PDGFRα: together with MeHg; for effect on Pb- and paraquat-induced reductions in levels of PDGFRα: together with Pb (1 μM) or paraquat (5 μM); for absolute levels of PDGFRα: O-2A/OPCs in PDGF, 24 hr exposure
O-2A/OPCs = assay: In vitro BrdU incorporation assay; format: cell-based, rat; conditions: with TMX, 2 days
Procedure: Cell proliferation was assessed by bromodeoxyuridine (BrdU) incorporation and by using the mouse anti-BrdU mAb IgGl (1:100; Sigma) to label dividing cells. Stained cells on cover slips were rinsed two times in 1×PBS, counterstained with 4′6-diamidino-2-phenylindole (DAPI; Molecular Probes, Eugene, Oreg., United States) and mounted on glass slides with Fluoromount (Molecular Probes). Staining against surface proteins was performed on cultures of living cells or on cells fixed with 2% paraformaldehyde. Staining with intracellular antibodies was performed by permeabilizing cells with ice-cold methanol for 4 min or by using 0.5% Triton for 15 mm on 2% parafomaldhyde-fixed cells. Antibody binding was detected with appropriate fluorescent dye-conjugated secondary antibodies at 10 μg/ml (Southern Biotech, Birmingham, Ala., United States) or Alexa Fluor-coupled antibodies at a concentration of 1 μg/ml (Molecular Probes), applied for 20 min. Anti-BrdU monoclonal antibody was obtained from Sigma.

SRE-luciferase reporter = SRE-luciferase reporter assay; format: cell-based, rat; conditions: PDGF plus TH or BMP-4 (10 ng/ml), 24 hr
Procedure: (§1) Cells were deprived of PDGF-AA for 5 h before re-exposure to PDGF-AA (10 ng/ml) for 1 h for Western blot or 6 h for luciferase assays of pathway activation. Transient transfection was performed using Fugene6 (Roche, Basel, Switzerland ) transfection solution according to the manufacturer's protocol. For the luciferase assay, cells seeded in 12-well plates were transfected with a reporter plasmid SRE-Luc(firefly) or NF-κB-Luc(firefly) (BD-Clontech, Palo Alto, Calif., United States) and an internal control plasmid pRLSV40-LUC. Analyses of luciferase activity were performed according to the protocol of the Dual Luciferase Assay System (Promega, Madison, Wis., United States), which uses an internal control of Renilla luciferase for quantification, and relative light units were measured using a luminometer.

Erk1/2 = format: cell-based, rat; conditions: for Erk1/2 phosphorylation caused by PDGF: co-exposure 24 hr, TH, BMP4, FGF-2 or NT-3 (10 ng/ml); for NT-3-stimulated Erk1/2 phosphorylation: co-exposure to TH, BMP-4 or FGF-2
Procedure: as §1
(§2) Anti-phosphorylated Erk monoclonal, anti-Erk monoclonal, anti-TrkC polyclonal anti-Fyn polyclonal, anti-EGFR polyclonal, anti-c-Met polyclonal, anti-phospho-tyrosine monoclonal, and anti-PDGFRα polyclonal antibodies were obtained from Santa Cruz Biotechnology (Santa Cruz, Calif., United States). Anti-c-Cbl monoclonal antibody was obtained from BD PharMingen (San Diego, Calif., United States). Anti-phosphorylated Akt monoclonal and anti-Akt polyclonal antibodies were obtained from Cell Signaling Technology (Beverly, Mass., United States). Anti-phosphorylated PDGPRα polyclonal antibody was obtained from Biosource (Carlsbad, Calif., United States). The cell culture samples were collected and lysed in RAPI buffer, whereas dissected tissue samples were sonicated in RAPI buffer. Samples were resolved on SDS-PAGE gels and transferred to PVDF membranes (PerkinElmer Life Science. Wellesley, Mass., United States), After being blocked in 5% skim milk in PBS containing 0.1% Tween 20, membranes were incubated with a primary antibody, followed by incubation with an HRP-conjugated secondary antibody (Santa Cruz Biotechnology). Membranes were visualized using Western Blotting Luminol Reagent (Santa Cruz Biotechnology). All analyses of signaling pathway components were conducted in the presence of ligand for the receptor pathway under analysis (either PDGF-AA for PDGFRα, NT-3 or TrkC, HGF for c-Met, or EGF for EGFR).

TrkC = format: cell-based, rat; conditions: O-2A/OPCs in NT-3, 24 hr exposure
From the text: as §2

c-Met = format: cell-based, rat; conditions: O-2A/OPCs in HGF, 24 hr exposure
From the text: as §2

[1] = added 1 h before Pb or paraquat
[2] = NAC 1 mM, PP1 100 nM or ICI 182,780 200 nM with TMX

T1 sequence (Q62844 whole entry): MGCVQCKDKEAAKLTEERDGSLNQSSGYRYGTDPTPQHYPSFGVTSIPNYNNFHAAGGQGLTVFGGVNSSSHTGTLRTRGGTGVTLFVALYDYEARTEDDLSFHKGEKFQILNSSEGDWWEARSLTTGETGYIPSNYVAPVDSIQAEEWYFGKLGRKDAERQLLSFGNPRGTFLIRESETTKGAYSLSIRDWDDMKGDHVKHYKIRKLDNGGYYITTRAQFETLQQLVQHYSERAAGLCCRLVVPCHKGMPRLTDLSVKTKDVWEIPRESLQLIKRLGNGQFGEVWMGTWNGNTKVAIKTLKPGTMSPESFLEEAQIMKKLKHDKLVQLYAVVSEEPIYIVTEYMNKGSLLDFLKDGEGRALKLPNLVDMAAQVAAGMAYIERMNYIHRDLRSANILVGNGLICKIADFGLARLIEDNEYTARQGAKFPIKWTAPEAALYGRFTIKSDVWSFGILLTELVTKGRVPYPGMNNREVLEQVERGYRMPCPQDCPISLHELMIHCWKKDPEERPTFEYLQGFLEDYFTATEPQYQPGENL

## CC(C)(C)n1nc(-c2ccc(Cl)cc2)c2c(N)ncnc21 [PP2]
Fyn
  effect on MeHg-induced Fyn activation: blocked
c-Cbl
  effect on MeHg-induced c-Cbl phosphorylation: blocked

## CN(C)CCCn1cc(C2=C(c3c[nH]c4ccccc34)C(=O)NC2=O)c2ccccc21 [BIM-1, bisindoleylmaleimide I]
PDGFRα
  effect on MeHg-induced reductions in levels of PDGFRα: did not protect
  effect on Pb- and paraquat-induced reductions in levels of PDGFRα: did not protect
Fyn
  effect on MeHg-induced Fyn activation: did not prevent
Fyn; [1]
  effect on Pb- and paraquat-induced Fyn activation: did not prevent
c-Cbl
  effect on MeHg-induced c-Cbl phosphorylation: did not prevent
c-Cbl; [1]
  effect on Pb- and paraquat-induced c-Cbl phosphorylation: did not prevent

## C[C@]12CC[C@@H]3c4ccc(O)cc4C[C@@H](CCCCCCCCC[S+]([O-])CCCC(F)(F)C(F)(F)F)[C@H]3[C@@H]1CC[C@@H]2O (stereo partly drawn) [ICI 182780]
O-2A/OPCs
  effect on TMX effect on cell proliferation: blocked
PDGFRα; [2]
  effect on TMX-induced reductions in levels of PDGFRα: rescued
Fyn; [2]
  effect on TMX-induced activation of Fyn: prevented
c-Cbl; [2]
  effect on TMX-induced activation of c-Cbl: prevented

## O=C1N[C@H](C(=O)O)CS1 [proeysteinc, procysteine]
PDGFRα
  effect on Pb- and paraquat-induced reductions in levels of PDGFRα: protected

## bone morphogenetic protein-4 [BMP-4]
SRE-luciferase reporter
  SRE-reporter gene expression: greatly reduces
Erk1/2
  Erk1/2 phosphorylation caused by PDGF: reduce
  NT-3-stimulated Erk1/2 phosphorylation: not affected
PDGFRα
  absolute levels of PDGFRα: reductions
TrkC
  levels of TrkC: unaffected
c-Met
  c-Met levels: decreases
Fyn; differentiation inducers TH and BMP
  fyn activation: activated
c-Cbl
  c-Cbl phosphorylation: increased phosphorylation

## N[C@@H](Cc1cc(I)c(Oc2ccc(O)c(I)c2)c(I)c1)C(=O)O [TH, thyroid hormone, reference compound]
SRE-luciferase reporter
  SRE-reporter gene expression: greatly reduces
Erk1/2
  Erk1/2 phosphorylation caused by PDGF: reduce
  NT-3-stimulated Erk1/2 phosphorylation: not affected
PDGFRα
  absolute levels of PDGFRα: reductions

## fibroblast growth factor-2 [FGF-2]
Erk1/2
  Erk1/2 phosphorylation caused by PDGF: enhances signaling
  NT-3-stimulated Erk1/2 phosphorylation: not affected
PDGFRα; FGF-2 10 ng/ml and PDGF, 24 hr
  levels of PDGFRα in the presence of actinomycin D: still show increased levels
PDGFRα
  absolute levels of PDGFRα: increase
TrkC
  levels of TrkC: unaffected
c-Met
  c-Met levels: increased
c-Cbl
  c-Cbl phosphorylation: caused a reduction

## C[C@@H]1C[C@@H]([C@H](O)CC2CC(=O)NC(=O)C2)C(=O)[C@@H](C)C1 [cycloheximide]
PDGFRα; cycloheximide 1 μg/ml
  levels of PDGFRα on inhibition of protein synthesis: reductions

B1: neurotrophin-3 (protein, UniProt P20783 139-257, looked up)
Neurotrophin-3: YAEHKSHRGEYSVCDSESLWVTDKSSAIDIRGHQVTVLGEIKTGNSPVKQYFYETRCKEARPVKNGCRGIDDKHWNSQCKTSQTYVRALTSENNKLVGWRWIRIDTSCVCALSRKIGRT
notes: signaling molecule that enhances self-renewal
Erk1/2
  Erk1/2 phosphorylation caused by PDGF: enhances signaling
PDGFRα
  absolute levels of PDGFRα: increase
TrkC
  levels of TrkC: unaffected
c-Met
  c-Met levels: increased
c-Cbl
  c-Cbl phosphorylation: caused a reduction

B2: scrambled (Scr) RNAi: scrambled negative control for c-Cbl RNAi, SEQ ID NO: 7 and 8 (nucleic acid)
chain 1: TTTAAACCCGGCCCTTTGGTTCAAGAGACCAAAGGGCCGGGTTTAAATTTTTT
chain 2: AATTAAAAAATTTAAACCCGGCCCTTTGGTCTCTTGAACCAAAGGGCCGGGTTTAAAGGCC
PDGFRα
  effect on MeHg-induced reductions in levels of PDGFRα: had no effect
